Key:
[1] = target: T1, GST-LXRβ ligand-binding domain (Homo sapiens, UniProt P55055, DUP175-175); experiment: TR-FRETβ activity assay (LXRβ-LBD / NCoA3 coactivator peptide, prestimulated with 24(S)-25-epoxycholesterol); type: biochemical; design: key to behavior in FRET assay: ag=agonist; ia=inverse agonist; details: for EC50: 1 μM 24(S)-25-epoxycholesterol as prestimulating agonist, read-out: FRETβ activity range (EC50); for behavior in FRET assay: agonist or inverse agonist
T1 construct: amino acids 156-461; NP009052; made in house; host or cells: E. coli
T1 sequence (P55055 with tags, fused parts or gaps DUP175-175): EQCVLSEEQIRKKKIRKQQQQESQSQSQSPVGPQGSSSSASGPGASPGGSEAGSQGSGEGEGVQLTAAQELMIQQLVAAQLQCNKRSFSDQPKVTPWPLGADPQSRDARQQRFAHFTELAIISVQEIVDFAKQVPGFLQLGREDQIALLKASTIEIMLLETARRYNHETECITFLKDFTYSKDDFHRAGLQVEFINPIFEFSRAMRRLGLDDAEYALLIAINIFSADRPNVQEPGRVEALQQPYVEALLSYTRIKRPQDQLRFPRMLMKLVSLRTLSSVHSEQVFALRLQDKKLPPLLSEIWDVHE
Procedure: The tested compounds were usually dissolved, tested and stored as 20 mM stock solutions in DMSO. […] Sulfonyl acetic acid derivatives are shelf stable as solid at rt for long time as reported by Griesbrecht et al. (Synlett 2010:374) or Faucher et al. (J. Med. Chem. 2004; 47:18). TR-FRETβ Activity Assay Recombinant GST-LXRβ ligand-binding domain (LBD; amino acids 156-461; NP009052; SEQ ID NO:2) was expressed in E. coli and purified via gluthatione-sepharose affinity chromatography. N-terminally biotinylated NCoA3 coactivator peptide (SEQ ID NO:1) was chemically synthesized (Eurogentec). […] Finally, a detection mix was added containing anti GST-Tb cryptate (CisBio; 610SAXLB) and Streptavidin-XL665 (CisBio; 610SAXLB) as fluorescent donor and acceptor, respectively, as well as the coactivator peptide and LXRβ-LBD protein (SEQ ID NO:2). The reaction was mixed thoroughly, equilibrated for 1 h at 4° C. and vicinity of LXRβ and coactivator peptide was detected by measurement of fluorescence in a VictorX4 multiplate reader (PerkinElmer Life Science) using 340 nm as excitation and 615 and 665 nm as emission wavelengths. Assays were performed in triplicates. Final Assay Concentrations of Components: 240 mM KCl, 1 μg/μL BSA, 0.002% Triton-X-100, […] anti GST-Tb cryptate, 2.5 ng/μL Streptavidin-XL665, coactivator peptide (400 nM), LXRβ protein ([…], i.e. 76 nM)

LXRα full length (FL) = target: T2, LXRα full length (FL) (Homo sapiens, UniProt Q13133); experiment: LXR Gal4 reporter transient transfection assay (M2H), Gal4α FL; type: cell-based; details: HEK293 cells; for EC50: read-out: M2H Gal4α FL activity range (EC50)
T2 construct: the full length (FL) proteins of LXRα (amino acids 1-447); NP005684; expressed in transfected cells; host or cells: HEK293
T2 sequence (Q13133 1-447): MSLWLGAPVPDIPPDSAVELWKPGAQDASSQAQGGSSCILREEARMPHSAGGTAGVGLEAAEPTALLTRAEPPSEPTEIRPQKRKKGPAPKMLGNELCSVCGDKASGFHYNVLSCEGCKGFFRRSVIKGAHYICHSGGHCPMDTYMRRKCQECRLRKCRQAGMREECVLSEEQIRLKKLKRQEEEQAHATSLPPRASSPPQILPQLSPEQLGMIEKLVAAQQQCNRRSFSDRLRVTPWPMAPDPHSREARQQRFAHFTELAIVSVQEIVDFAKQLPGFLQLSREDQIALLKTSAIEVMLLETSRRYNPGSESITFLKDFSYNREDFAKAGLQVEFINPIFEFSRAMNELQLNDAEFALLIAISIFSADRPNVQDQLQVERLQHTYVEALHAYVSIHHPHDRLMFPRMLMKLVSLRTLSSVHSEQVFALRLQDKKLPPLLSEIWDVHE
Procedure: (§1) The tested compounds were usually dissolved, tested and stored as 20 mM stock solutions in DMSO. Since sulfonyl acetic acid derivatives tend to decarboxylate under these conditions, these stock solutions were prepared, tested and stored as 20 mM DMSO stock solutions containing 100 mM trifluoroacetic acid (5 equivalents). Sulfonyl acetic acid derivatives are shelf stable as solid at rt for long time as reported by Griesbrecht et al. (Synlett 2010:374) or Faucher et al. (J. Med. Chem. 2004; 47:18).
(§2) LXR Gal4 Reporter Transient Transfection Assays
(§3) LXRα and LXRβ activity status was determined via detection of interaction with coactivator and corepressor proteins in mammalian two-hybrid experiments (M2H). For this, via transient transfection the full length (FL) proteins of LXRα (amino acids 1-447; NP005684; SEQ ID NO:7) or LXRβ-(amino acids 1-461; NP009052; SEQ ID NO:8) or the ligand-binding domains (LBD) of LXRα (amino acids 155-447 SEQ ID NO:3) or LXRβ (amino acids 156-461; SEQ ID NO:4) were expressed from pCMV-AD (Stratagene) as fusions to the transcriptional activation domain of NFkB. As cofactors, domains of either the steroid receptor coactivator 1 (SRC1; amino acids 552-887; SEQ ID NO:5) or of the corepressor NCoR (amino acids 1903-2312 SEQ ID NO:6) were expressed as fusions to the DNA binding domain of the yeast transcription factor GAL4 (from pCMV-BD; Stratagene). Interaction was monitored via activation of a coexpressed Firefly Luciferase Reporter gene under control of a promoter containing repetitive GAL4 response elements (vector pFRLuc; Stratagene). Transfection efficiency was controlled via cotransfection of constitutively active pRL-CMV Renilla reniformis luciferase reporter (Promega). HEK293 cells were grown in minimum essential medium (MEM) with 2 mM L-glutamine and Earle's balanced salt solution supplemented with 8.3% fetal bovine serum, 0.1 mM non-essential amino acids, 1 mM sodium pyruvate, at 37° C. in 5% CO2. 3.5×10^4 cells/well were plated in 96-well cell culture plates in growth medium supplemented with 8.3% fetal bovine serum for 16-20 h to ˜90% confluency. For transfection, medium was taken off and LXR and cofactor expressing plasmids as well as the reporter plasmids are added in 30 μL OPTIMEM/well including polyethylene-imine (PEI) as vehicle. Typical amounts of plasmids transfected/well: pCMV-AD-LXR (5 ng), pCMV-BD-cofactor (5 ng), pFR-Luc (100 ng), pRL-CMV (0.5 ng). Compound stocks were prepared in DMSO, prediluted in MEM to a total volume of 120 μL, and added 4 h after addition of the transfection mixture (final vehicle concentration not exceeding 0.2%). Cells were incubated for additional 16 h, lysed for 10 min in 1× Passive Lysis Buffer (Promega) and Firefly and Renilla luciferase activities were measured sequentially in the same cell extract using buffers containing D-luciferine and coelenterazine, respectively. Measurements of luminescence were done in a BMG-Iuminometer.

LXRβ full length (FL) = target: T3, LXRβ full length (FL) (Homo sapiens, UniProt P55055, DUP175-175); experiment: LXR Gal4 reporter transient transfection assay (M2H), Gal4β FL; type: cell-based; details: HEK293 cells; read-out: M2H Gal4β FL activity range (EC50)
T3 construct: the full length (FL) proteins of LXRα (amino acids 1-447); NP005684; NP009052; expressed in transfected cells; host or cells: HEK293
T3 sequence (P55055 with tags, fused parts or gaps DUP175-175): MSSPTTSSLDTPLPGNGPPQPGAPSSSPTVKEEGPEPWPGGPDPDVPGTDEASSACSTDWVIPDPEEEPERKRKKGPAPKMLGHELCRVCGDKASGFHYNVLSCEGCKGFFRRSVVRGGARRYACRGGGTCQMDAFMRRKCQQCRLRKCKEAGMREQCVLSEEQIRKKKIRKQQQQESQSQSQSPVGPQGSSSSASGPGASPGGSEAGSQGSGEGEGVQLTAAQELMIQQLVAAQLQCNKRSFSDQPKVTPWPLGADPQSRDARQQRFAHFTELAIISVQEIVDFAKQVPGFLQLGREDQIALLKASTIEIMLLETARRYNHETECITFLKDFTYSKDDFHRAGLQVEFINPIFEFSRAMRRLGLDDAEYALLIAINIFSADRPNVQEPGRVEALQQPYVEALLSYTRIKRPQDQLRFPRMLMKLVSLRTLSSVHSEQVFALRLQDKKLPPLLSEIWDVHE
Procedure: as §1, §2, §3

SMILES | EC50 [1] | behavior in FRET assay [1] | EC50 (LXRα full length (FL)) | EC50 (LXRβ full length (FL)) | M2H Gal4α FL activity range (EC50) (LXRα full length (FL))
Cc1cc(C)c(S(=O)(=O)N(Cc2ccc(-c3cccc(S(=O)(=O)CC(=O)O)c3)cc2)Cc2cccc(C(F)(F)F)c2)c(C)c1 [Example 11, 2-((4′-(((2,4,6-Trimethyl-N-(3-(trifluoromethyl)benzyl)phenyl)sulfonamido)methyl)-[1,1′-biphenyl]-3-yl)sulfonyl)acetic acid] | 1000 to 10000 nM | ia | 1000 to 10000 nM | 1000 to 10000 nM | –
Cc1cc(C)c(S(=O)(=O)N(Cc2ccc(C(F)(F)F)o2)Cc2sc(-c3cccc(C(C)(C)C(=O)O)c3)cc2Cl)c(C)c1 [10/6] | 1000 to 10000 nM | ag | 100 to 1000 nM | < 100 nM | –
O=C(O)CS(=O)(=O)c1cccc(-c2ccc(CN(Cc3ccc(C(F)(F)F)o3)S(=O)(=O)c3c(Cl)cccc3Cl)cc2)c1 [Example 10/1] | 1000 to 10000 nM | ag | – | 100 to 1000 nM | inactive
Cc1cc(F)c(S(=O)(=O)N(Cc2ccc(-c3cccc(S(=O)(=O)CC(=O)O)c3)cc2)Cc2ccc(C(F)(F)F)o2)c(F)c1 [Example 14/1] | 1000 to 10000 nM | ag | – | 1000 to 10000 nM | inactive
O=C(O)CS(=O)(=O)c1cccc(-c2ccc(CN(Cc3ccc(C(F)(F)F)o3)S(=O)(=O)c3c(Cl)cccc3C(F)(F)F)cc2)c1 [10/3] | 1000 to 10000 nM | ag | 1000 to 10000 nM | 100 to 1000 nM | –
Cc1cc(C)c(S(=O)(=O)N(Cc2ccc(-c3cccc(S(=O)(=O)CC(=O)O)c3)cc2)Cc2ccc(C)o2)c(C)c1 [5/5] | > 10000 nM | ia | 1000 to 10000 nM | 100 to 1000 nM | –
Cc1cccc(C)c1S(=O)(=O)N(Cc1ccc(-c2cccc(S(=O)(=O)CC(=O)O)c2)cc1)Cc1ccc(C(F)(F)F)o1 [14/2] | 1000 to 10000 nM | ia | 1000 to 10000 nM | 100 to 1000 nM | –
Cc1cc(C)c(S(=O)(=O)N(Cc2ccc(-c3cccc(S(=O)(=O)CC(=O)O)c3)cc2)C(C)(C)c2ccc(C(F)(F)F)o2)c(C)c1 [Example 17, 2-((4′-(((2,4,6-Trimethyl-N-(2-(5-(trifluoromethyl)furan-2-yl)propan-2-yl)phenyl)sulfon-amido)methyl)-[1,1′-biphenyl]-3-yl)sulfonyl)acetic acid] | 1000 to 10000 nM | – | 1000 to 10000 nM | 1000 to 10000 nM | –

The next lines start with the values.

EC50 [1] | behavior in FRET assay [1] | EC50 (LXRα full length (FL)) | EC50 (LXRβ full length (FL)) | M2H Gal4α FL activity range (EC50) (LXRα full length (FL)) | SMILES
1000 to 10000 nM | ia | 1000 to 10000 nM | 1000 to 10000 nM | – | Cc1cc(C)c(S(=O)(=O)N(Cc2ccc(-c3cccc(S(=O)(=O)CC(=O)O)c3)cc2)Cc2csc(C(F)(F)F)c2)c(C)c1 [11/10]
100 to 1000 nM | ag | 100 to 1000 nM | < 100 nM | – | Cc1cc(C)c(S(=O)(=O)N(Cc2ccc(-c3cccc(S(=O)(=O)CC(=O)O)c3)cc2)Cc2c(F)cccc2Cl)c(C)c1 [11/6]
100 to 1000 nM | ia | < 100 nM | < 100 nM | – | CC(C)(C(=O)O)c1cccc(-c2ccc(CN(Cc3ccc(C(F)(F)F)o3)S(=N)(=O)c3cccc4ccccc34)cc2)c1 (stereo not drawn) [Example 26, 2-Methyl-2-(4′-((N-((5-(trifluoromethyl)furan-2-yl)methyl)naphthalene-1-sulfonoamid-imidamido)methyl)-[1,1′-biphenyl]-3-yl)propanoic acid]
100 to 1000 nM | ia | < 100 nM | < 100 nM | – | Cc1ccc2ccccc2c1S(=O)(=O)N(Cc1ccc(-c2cccc(C(C)(C)C(=O)O)c2)cc1)C1CCc2ccc(C(F)(F)F)cc21 (stereo not drawn) [17/2]
< 100 nM | ia | < 100 nM | < 100 nM | – | Cc1sc2ccccc2c1S(=O)(=O)N(Cc1ccc(-c2cccc(C(C)(C)C(=O)O)c2)cc1)Cc1ccc(C(F)(F)F)o1 [10/18]
< 100 nM | ia | < 100 nM | < 100 nM | – | Cc1cc(C(F)(F)F)oc1CN(Cc1ccc(-c2cccc(C(C)(C)C(=O)O)c2)cc1)S(=O)(=O)c1c(C)ccc2ccccc12 [17/3]
100 to 1000 nM | ag | 100 to 1000 nM | < 100 nM | – | Cc1nn2cccnc2c1S(=O)(=O)N(Cc1ccc(-c2cccc(C(C)(C)C(=O)O)c2)cc1)Cc1ccc(C(F)(F)F)o1 [10/20]
100 to 1000 nM | ia | < 100 nM | < 100 nM | – | Cc1ccc2ccccc2c1S(=O)(=O)N(Cc1ccc(C(F)(F)F)o1)C1COc2cc(-c3cccc(C(C)(C)C(=O)O)c3)ccc21 (stereo not drawn) [10/14]
